“Also recorded” adds a separate entry of the source. Like-named read-outs stand apart in the source and are kept apart here.
What was measured:
[1] = Thermal Gravimetric Analysis (TGA) weight loss; assay type: physicochemical; settings: heated 10° C./min under dry nitrogen
Excerpt: TGA data were collected for each of the forms using a Q500 Thermogravimetric Analyzer (TA Instruments, 109 Lukens Drive, New Castle, Del. 19720), which uses as its control software Advantage for QW-Series, version 1.0.0.78, Thermal Advantage Release 2.0, © 2001 (TA instruments—Waters LLC). An aliquot of the sample was transferred into a platinum sample pan (Pan part # 952019.906; TA Instruments, 109 Lukens Drive, New Castle, Del. 19720). The pan was placed on the loading platform and was then automatically loaded in to the apparatus using the control software. Thermograms were typically obtained by individually heating the sample at 10° C./min from 25° C. to 300° C. under flowing dry nitrogen (compressed nitrogen, grade 4.8, BOC Gases, 575 Mountain Avenue, Murray Hill, N.J. 07974-2082), with a sample purge flow rate of 60 ml/min and a balance purge flow rate of 40 ml/min. Thermal transitions (weight changes) were viewed and analyzed using the analysis software Universal Analysis 2000 for Windows 95/95/2000/NT, version 3.1E; Build 3.1.0.40, © 1991–2001 (TA instruments—Waters LLC), provided with the instrument.
Using the DSC and TGA data obtained for Ritonavir Forms III, IV, and V, and published data for Forms I and II, the different thermal characteristics of each of the forms of Ritonavir were determined. These characteristics are provided below in Table 1: […]

[2] = Conversion of solid form on contact with aqueous media; assay type: physicochemical
Excerpt: Ritonavir(IV) can be prepared from Ritonavir(III). In a particular method, Ritonavir(III) is contacted with an aqueous medium for an amount of time sufficient to effect the change. For example, Ritonavir(III) placed on a vacuum filter can be washed with deionized water, thereby providing Ritonavir(IV).

[3] = Conversion of solid form when left in the crystallization mixture; assay type: physicochemical
Procedure: In particular: (A) is a representative X-ray diffraction pattern of Ritonavir(I); (B) is an X-ray diffraction pattern of a sample of Ritonavir(V) after being left in the crystallization mixture for approximately 16 hours, with arrows indicating peaks that signify the presence of Ritonavir(I); and (C) is a representative X-ray diffraction pattern of Ritonavir(V). […] In particular: (A) provides a DSC trace of Ritonavir(I); (B) provides a DSC trace of a sample of Ritonavir(V) after being left in the crystallization mixture for approximately 16 hours, wherein two peaks are observed corresponding to Forms I and V; and (C) is a representative DSC trace of Ritonavir(V). Ritonavir(V) is readily prepared from solvent systems (e.g., binary solvent systems) comprised of an acetate and acetonitrile. In particular, it was discovered that after Ritonavir is dissolved in such a solvent system at an elevated temperature (e.g., about 70° C.), the slow cooling of the resulting mixtures (e.g., at a rate of about 5° C./minute until a temperature of about 5° C. is reached) typically yields crystals of Ritonavir(V), which can be isolated by filtration and optionally dried by air. Specific solvent systems comprise from about 25 to about 50 volume percent acetonitrile.

[4] = crystalline form, oral; cited from earlier work
[5] = data for Forms I and II obtained from Chemburkar; cited from earlier work

CC(C)c1nc(CN(C)C(=O)N[C@H](C(=O)N[C@@H](Cc2ccccc2)C[C@H](O)[C@H](Cc2ccccc2)NC(=O)OCc2cncs2)C(C)C)cs1 (relative stereo) [Form III, 10-hydroxy-2-methyl-5-(1-methylethyl)-1-[2-(1-methylethyl)-4-thiazolyl]-3,6-dioxo-8,11-bis(phenylmethyl)-2,4,7,12-tetraazatridecan-13-oic acid, 5-thiazolylmethyl ester, [5S-(5R*,8R*,10R*,11R*)]]
TGA % weight loss (up to 130° C.) ([1]; listed as III): 30—60%
form conversion while washed or incubated in aqueous media (DSC trace, FIG. 17) ([2]; washed or incubated in aqueous media): conversion of Ritonavir Form III to Form IV, and subsequently to Form I

CC(C)c1nc(CN(C)C(=O)N[C@H](C(=O)N[C@@H](Cc2ccccc2)C[C@H](O)[C@H](Cc2ccccc2)NC(=O)OCc2cncs2)C(C)C)cs1 (relative stereo) [Form IV, 10-hydroxy-2-methyl-5-(1-methylethyl)-1-[2-(1-methylethyl)-4-thiazolyl]-3,6-dioxo-8,11-bis(phenylmethyl)-2,4,7,12-tetraazatridecan-13-oic acid, 5-thiazolylmethyl ester, [5S-(5R*,8R*,10R*,11R*)]]
TGA % weight loss (up to 130° C.) ([1]; listed as IV): 4—9%
form conversion on exposure to an aqueous environment ([2]; aqueous environment, extended time, about 15 to about 60 minutes): converts to Ritonavir Form I
form conversion on prolonged exposure to an aqueous environment ([2]; prolonged exposure to aqueous environment): converts the compound to Ritonavir Form II

CC(C)c1nc(CN(C)C(=O)N[C@H](C(=O)N[C@@H](Cc2ccccc2)C[C@H](O)[C@H](Cc2ccccc2)NC(=O)OCc2cncs2)C(C)C)cs1 (relative stereo) [Form V, 10-hydroxy-2-methyl-5-(1-methylethyl)-1-[2-(1-methylethyl)-4-thiazolyl]-3,6-dioxo-8,11-bis(phenylmethyl)-2,4,7,12-tetraazatridecan-13-oic acid, 5-thiazolylmethyl ester, [5S-(5R*,8R*,10R*,11R*)]]
TGA % weight loss (up to 130° C.) ([1]; listed as V): <0.3%
form conversion when left in crystallization mixture (X-ray diffraction, DSC) ([3]; approximately 16 hours at nucleation temperature of 5° C.): formed Ritonavir(I)
form conversion on prolonged time in crystallization mixture ([3]; prolonged period of time (hours to days), listed as Ritonavir(V)): form a mixture of Forms V and I; also recorded: provides Ritonavir Form I

CC(C)c1nc(CN(C)C(=O)N[C@H](C(=O)N[C@@H](Cc2ccccc2)C[C@H](O)[C@H](Cc2ccccc2)NC(=O)OCc2cncs2)C(C)C)cs1 (single isomer, unassigned) [Form I, 10-hydroxy-2-methyl-5-(1-methylethyl)-1-[2-(1-methylethyl)-4-thiazolyl]-3,6-dioxo-8,11-bis(phenylmethyl)-2,4,7,12-tetraazatridecan-13-oic acid, 5-thiazolylmethyl ester, [5S-(5R*,8R*,10R*,11R*)]]
bioavailability [4]: not bioavailable; also recorded: poor bioavailability
TGA % weight loss (up to 130° C.) [5]: <0.3%

CC(C)c1nc(CN(C)C(=O)N[C@H](C(=O)N[C@@H](Cc2ccccc2)C[C@H](O)[C@H](Cc2ccccc2)NC(=O)OCc2cncs2)C(C)C)cs1 (single isomer, unassigned) [Form II, 10-hydroxy-2-methyl-5-(1-methylethyl)-1-[2-(1-methylethyl)-4-thiazolyl]-3,6-dioxo-8,11-bis(phenylmethyl)-2,4,7,12-tetraazatridecan-13-oic acid, 5-thiazolylmethyl ester, [5S-(5R*,8R*,10R*,11R*)]]
bioavailability [4]: poor bioavailability
TGA % weight loss (up to 130° C.) [5]: <0.3%
